Values quoted from earlier work, collected in patent US12390418B2, “Biphasic compositions comprising one or both of carbonate and phosphate” (NATURAL EXTRACTION SYSTEMS, LLC, priority 2021, dated 2025).

Conditions: in water at 20 degrees Celsius

Molecule	association constant for protonation (Kb)
O=C(O)O [bicarbonate]	approximately 22 nanomolar
O=C(O)O [carbonate]	approximately 210 micromolar
O=P(O)(O)O [hydrogen phosphate]	approximately 160 nanomolar
phosphate	approximately 23 millimolar
